Laboratory results published in patent US4404230A, “4-Hydroxy-1,2-Benzisothiazol-3(2H)-one-1,1-dioxides and salts thereof” (priority 1980, dated 1983).

Tests used:
[1] = test system: thrombocyte aggregation; assay: Effect on thrombocyte aggregation induced by collagen; format: cell-based; conditions: read-out: Change in % max. aggregation rate
Method: The thrombocyte aggregation was measured according to Born and Cross [J. Physiol. 170, 397 (1964)] in platelet-rich plasma obtained by centrifuging citrate blood. The change in the maximum aggregation rate in % compared with a control, and the percent change in the "optical density" were the measured parameters. The aggregation was induced by collagen.

[2] = test system: taste testers; assay: Determination of the threshold concentration (sweet taste); format: in vivo
Method: Aqueous solutions having concentrations of 1:12,500, 1:25,000, 1:50,000, and 1:100,000 were prepared of test compounds A, B and C and of comparison compounds X, Y and Z, and each was evaluated at 5 taste testers according to the following scoring system: Very sweet (=3 points), medium sweet (=2 points), weakly sweet (=1 point), and not sweet (=0 point). The tests were carried out as described by H. G. Schutz and F. J. Pilgrim in Food Research 22, 206 (1957). The dilution perceptible as sweet was defined as having the concentration at which the average value of the evaluation points reached 1.0 or more.

[3] = test system: taste testers; assay: Determination of the relative sweetening power in comparison to saccharose; format: in vivo; conditions: compared with 3% aqueous solution of saccharose
Source text: The relative sweetening power (often also defined as degree of sweetness) of sweetening agents in comparison with saccharose (cane sugar) varies considerably with concentration. […] Therefore, for the determination of the relative sweetening power of the test compounds a 3% aqueous solution of saccharose was always used for comparison.

[4] = test system: taste testers; conditions: prior knowledge; cited from earlier work
[5] = prior knowledge; cited from earlier work
[6] = test system: taste testers; assay: Determination of the taste quality; format: in vivo
Method: The tests were performed in analogy to the method of DuBois, G. A. Crosby, R. A. Stephanson and R. E. Wingard Jr., J. Agric. […] The test compounds were used as aqueous solutions at a concentration which corresponds to an about 5% saccharose solution. As comparison compound saccharose was used. The tests were carried out under identical conditions. Only the characterization of the taste was evaluated, because the intensity was already determined in the preceding experiments. The following criteria were determined by each tester: Percentage sweet to percentage bitter to percentage another taste quality. Furthermore, the presence or absence of an after taste of the individual test compounds was determined. Each substance was tested twice with regard to five different determinations.

[7] = test system: taste testers; conditions: prior knowledge; cited from earlier work; remark: listed apart in the source
[8] = Batzinger et al., Science 198, 944 (1977); cited from earlier work

Row | SMILES | change in maximum aggregation rate vs control at 100 µM [1] [%] | Average value of evaluation points ([2]; concentration 1:12500) [points] | Average value of evaluation points ([2]; concentration 1:25000) [points] | Average value of evaluation points ([2]; concentration 1:50000) [points] | Relative sweetening power (Saccharose = 1) [3] | sweetening power compared with saccharose (in words) [4] | toxicological tests at higher dosages [5] | Average value of evaluation points ([2]; concentration 1:100000) [points] | purity of the taste [6] | After taste ([6]; 1:10000, 10 determinations) | Percentage bitter ([6]; 1:10000, 10 determinations) [%] | Percentage other taste ([6]; 1:10000, 10 determinations) [%] | Percentage sweet ([6]; 1:10000, 10 determinations) [%] | taste profile compared with saccharose [6] | after taste and concurrent taste [7] | mutagenic effect [8] | After taste ([6]; 1:20, 10 determinations) | Percentage bitter ([6]; 1:20, 10 determinations) [%] | Percentage other taste ([6]; 1:20, 10 determinations) [%] | Percentage sweet ([6]; 1:20, 10 determinations) [%]
1 | O=C1NS(=O)(=O)c2cccc(O)c21.[Na] [sodium salt] | 0 | – | – | – | – | – | – | – | – | – | – | – | – | – | – | – | – | – | – | –
2 | O=S(=O)(O)NC1CCCCC1 [X, cyclamate, reference compound] | – | 0.6 | 0.2 | 0.0 | 45 | much better than that of the saccharose | not without objection | – | – | – | – | – | – | – | – | – | – | – | – | –
3 | O=C1NS(=O)(=O)c2cccc(O)c21 [Substance A, 4-hydroxy-1,2-benzisothiazol-3(2H)-one-1,1-dioxide] | – | – | 2.4 | 1.0 | 210 | – | – | 0.2 | 94-96% | 3 | 2 | 4 | 94 | – | – | – | – | – | – | –
4 | O=C1NS(=O)(=O)c2ccccc21 [Y, saccharine, reference compound] | – | – | 2.4 | 1.2 | – | much better than that of the saccharose | – | 0.4 | – | 80 | 21 | 7 | 72 | not even approached | metallic, bitter after taste and the bitter concurrent taste | shows a mutagenic effect | – | – | – | –
5 | O=C1NS(=O)(=O)c2cc(O)cc(O)c21 [Substance C, 4,6-Dihydroxy-1,2-benzoisothiazol-3(2H)-one-1,1-dioxide] | – | – | 1.8 | 1.0 | 180 | – | – | 0.0 | 86% | 8 | 3 | 11 | 86 | – | – | – | – | – | – | –
6 | OC[C@H]1O[C@@](CO)(O[C@H]2O[C@H](CO)[C@@H](O)[C@H](O)[C@H]2O)[C@@H](O)[C@@H]1O [Saccharose, saccharose, reference compound] | – | – | – | – | – | – | – | – | – | – | – | – | – | – | – | – | 4 | 0 | 2 | 98
7 | O=C1NS(=O)(=O)c2cc(O)ccc21 [Z, 6-hydroxy-1,2-benzisothiazol-3(2H)-one-1,1-dioxide, reference compound] | – | – | 1.4 | 0.6 | 140 | – | – | 0.0 | – | 29 | 7 | 12 | 81 | not even approached | – | – | – | – | – | –
